Series [1] concerns histamine-induced contractions in guinea pig ileum. The series is described as follows: Inhibition of histamine-induced contractions in guinea pig ileum (Assay 3). The settings on record: Cavia porcellus, histamine 1.7 μM, read-out: Inhibition of histamine-induced contraction (%). Summed up:
(§1)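 Ileal strips from male Duncan Hartley guinea pigs were held at 1 g tension in 32° C oxygenated Krebs (pH 7.4) with isotonic transducers. After control contractions to 5-HT (2.6 μM) or histamine (1.7 μM), compound at 3 and 30 μM was added, its own effect noted, and agonist re-applied.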

Series [2] relates to 5-HT-induced contractions in guinea pig ileum. The series is described as follows: Inhibition of 5-HT-induced contractions in guinea pig ileum (Assay 3). The settings on record: Cavia porcellus, 5-HT 2.6 μM, read-out: Inhibition of 5-HT-induced contraction (%). The method, boiled down:
as §1

Series [3] has as its system α-smooth muscle actin (α-SMA) mRNA. The series can be described thus: Anti-remodelling activity in human lung fibroblasts (HFL1): TGFβ-induced α-SMA mRNA (Assay 4). The series is classed as cell-based. The settings on record: Homo sapiens, HFL1 cells, TGFβ 10 ng/ml, 24 h, read-out: Inhibition of α-SMA mRNA synthesis (%). The method, boiled down:
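Real-time RT-PCR of α-SMA mRNA, GAPDH as reference, measured after 24 h exposure of low-serum-primed HFL1 cells to 10 ng/ml TGFβ with test compounds (3 and 30 μM) in 10% FBS medium. Readout is inhibition of TGFβ-driven α-SMA mRNA overexpression.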

For series [4], the system named is IL-1α-induced PGE2 release. The series is described as follows: IL-1α-induced PGE2 release in human diploid lung fibroblasts (WI-38) (Assay 5). The note with it: Homo sapiens, WI-38 cells, IL-1α 1 nM, overnight. It is filed as cell-based. Summed up: (§2)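 Cell viability was read by Alamar Blue fluorescence (530/590 nm) after 4 h at 37 °C, following an overnight 37 °C incubation of human lung fibroblasts with 1 nM IL-1α and compound (3 or 30 μM) in 10% FBS MEM, pH 7.3. Supernatant PGE2 was measured by radioimmunoassay to derive percent inhibition.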

A further series has as its system WI-38 cells. The series is described as follows: Viability of WI-38 cells, Alamar Blue (Assay 5). It is filed as cell-based, human. Summed up: as §2
The target of another series is T1, 5-lipoxygenase (Homo sapiens, UniProt P09917).
T1 construct: endogenous in cells; host or cells: human peripheral blood mononuclear leukocytes (PBMLs)
T1 sequence (P09917 1-674): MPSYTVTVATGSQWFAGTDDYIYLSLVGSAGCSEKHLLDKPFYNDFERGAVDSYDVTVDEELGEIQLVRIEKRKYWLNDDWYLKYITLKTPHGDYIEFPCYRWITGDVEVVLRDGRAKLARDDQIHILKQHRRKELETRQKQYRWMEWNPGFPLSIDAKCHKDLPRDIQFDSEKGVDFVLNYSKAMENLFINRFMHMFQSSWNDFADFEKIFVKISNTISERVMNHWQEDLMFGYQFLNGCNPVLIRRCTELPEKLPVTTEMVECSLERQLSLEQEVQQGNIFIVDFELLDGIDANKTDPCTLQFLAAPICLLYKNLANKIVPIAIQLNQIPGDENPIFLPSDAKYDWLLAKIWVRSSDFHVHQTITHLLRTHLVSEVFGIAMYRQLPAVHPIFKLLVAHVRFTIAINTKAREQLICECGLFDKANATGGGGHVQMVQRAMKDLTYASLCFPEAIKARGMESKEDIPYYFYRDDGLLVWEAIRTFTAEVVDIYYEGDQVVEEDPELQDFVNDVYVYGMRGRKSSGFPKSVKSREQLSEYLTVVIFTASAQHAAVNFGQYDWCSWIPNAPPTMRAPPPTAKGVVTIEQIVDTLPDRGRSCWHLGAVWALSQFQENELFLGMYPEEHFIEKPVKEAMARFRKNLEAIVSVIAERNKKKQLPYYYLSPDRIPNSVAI
The series is described as follows: 5-lipoxygenase activity (LTB4) in human peripheral blood mononuclear leukocytes (Assay 6). It is filed as cell-based. The note with it: human PBMLs, A23187 30 μM, read-out: Inhibition of 5-LO (%). The method, boiled down:
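LTB4 in supernatant quantified by EIA after 15 min at 37° C. in HBSS, pH 7.4, where Ficoll-isolated human PBMLs (5×10^6) received ionophore A23187 (30 μM) and test compound (3 and 30 μM) or 0.1% DMSO vehicle.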

The target in a further series is TRPV1 receptor (Rattus norvegicus, UniProt O35433). The series can be described thus: TRPV1 modulation in DRG neurones: CGRP release in absence and presence of capsaicin (Assay 2). Also on record: The culture used for this experiment contained sensory neurones, Schwann cells and fibroblasts; endogenous in cells; host or cells: primary rat DRG sensory neurone culture (with Schwann cells and fibroblasts). It is filed as cell-based. The settings on record: 20 min; for inhibition at 3 µM: 3 μM with capsaicin 1 μM; for Emax at 3 µM: test compound alone 3 μM; for Emax at 3 µM / Emax at 30 µM: rat DRG sensory neurones, read-out: CGRP release (% of capsaicin (1 μM) response); for Emax at 30 µM: test compound alone 30 μM.
Chain of TRPV1 receptor (O35433 whole entry): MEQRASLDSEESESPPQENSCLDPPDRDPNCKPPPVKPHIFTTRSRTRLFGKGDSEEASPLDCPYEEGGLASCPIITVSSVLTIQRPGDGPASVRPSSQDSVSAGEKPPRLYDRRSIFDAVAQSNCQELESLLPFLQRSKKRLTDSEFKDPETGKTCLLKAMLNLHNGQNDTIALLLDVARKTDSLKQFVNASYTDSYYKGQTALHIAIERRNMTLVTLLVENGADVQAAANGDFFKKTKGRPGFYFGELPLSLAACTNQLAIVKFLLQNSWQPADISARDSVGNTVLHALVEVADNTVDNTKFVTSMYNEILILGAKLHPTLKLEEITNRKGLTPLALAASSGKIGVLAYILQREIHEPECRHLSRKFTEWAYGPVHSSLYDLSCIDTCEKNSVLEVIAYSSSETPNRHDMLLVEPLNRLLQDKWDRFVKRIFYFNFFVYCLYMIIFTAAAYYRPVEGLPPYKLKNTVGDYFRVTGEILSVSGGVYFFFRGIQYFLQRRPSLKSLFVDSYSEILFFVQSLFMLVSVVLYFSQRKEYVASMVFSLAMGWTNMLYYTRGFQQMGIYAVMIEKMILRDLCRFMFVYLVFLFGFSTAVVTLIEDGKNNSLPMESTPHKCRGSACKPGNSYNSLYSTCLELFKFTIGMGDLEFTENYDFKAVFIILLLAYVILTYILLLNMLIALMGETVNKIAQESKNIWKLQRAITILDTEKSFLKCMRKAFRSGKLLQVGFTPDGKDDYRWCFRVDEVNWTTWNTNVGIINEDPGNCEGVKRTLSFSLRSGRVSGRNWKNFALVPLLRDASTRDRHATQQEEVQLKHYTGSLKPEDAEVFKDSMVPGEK

Where [5] appears, read: −ve: inhibition, +ve: potentiation of capsaicin response, read-out: Effect of test compounds on capsaicin (1 μM)-induced CGRP release (%).
The mark [6] stands for this setting: 30 μM with capsaicin 1 μM, −ve: inhibition, +ve: potentiation of capsaicin response, read-out: Effect of test compounds on capsaicin (1 μM)-induced CGRP release (%).

Consider `COc1cc(CCC(=O)C(C)C(=O)C2(C)CC2)ccc1O` (stereo not shown) [Compound 7, 5-(4-Hydroxy-3-methoxylphenyl)-2-methyl-1-(1-methylcyclopropyl)-pentane-1,3-dione], for which the inhibition at 3 µM is 4% in series [1]; 0% in series [2]; -8% in series [3]; 47% in series [4]; 24% at 5-lipoxygenase; 19% at TRPV1 receptor (setting [5]). Also, the inhibition at 30 µM in series [1] turned out to be 12%; in series [2] it was 26%; in series [3], 9%; in series [4] it was 94%; on 5-lipoxygenase, 63%; on TRPV1 receptor (setting [6]) it was 41%. Also, the figures for the “Decrease in cell viability (%)” value in the series on WI-38 cells (3 μM) and in the series with WI-38 cells (30 μM) were −4% and 4%, respectively. Moreover, the Emax at 3 µM on TRPV1 receptor is 35%. On TRPV1 receptor, the Emax at 30 µM was found to be 76%.

Take `COc1cc(CCC(=O)CC(=O)c2cccc3ccccc23)ccc1O` [Compound 27, 5-(4-Hydroxy-3-methoxylphenyl)-1-(naphthalene-1-yl)-pentane-1,3-dione]: the inhibition at 3 µM in series [1] worked out at 2%; in series [2] it was 1%; in series [3], 6%; in series [4], 92%; on 5-lipoxygenase, 92%; at TRPV1 receptor (setting [5]), 46%. Besides, the inhibition at 30 µM in series [1] is 68%; in series [2] it was 63%; in series [3], 79%; in series [4], 99%; at 5-lipoxygenase, 98%; on TRPV1 receptor (setting [6]), -66%. Moreover, the “Decrease in cell viability (%)” value was found to be 4% with WI-38 cells (3 μM) and 40% in the series with WI-38 cells (30 μM). For the same compound, the Emax at 3 µM at TRPV1 receptor is 85%. Moreover, the Emax at 30 µM at TRPV1 receptor is 162%.

Consider `COc1cc(CCC(=O)CC(=O)c2ccc(C(C)(C)C)cc2)ccc1O` [Compound 83, 1-(4-tert-Butylphenyl)-5-(4-hydroxy-3-methoxyphenyl)pentane-1,3-dione], for which the inhibition at 3 µM is 16% in series [1]; 4% in series [2]; -2% in series [3]; 86% in series [4]; 52% at 5-lipoxygenase; 11% at TRPV1 receptor (setting [5]). Moreover, the inhibition at 30 µM in series [1] worked out at 17%; in series [2], 11%; in series [3] it was 86%; in series [4], 102%; on 5-lipoxygenase it was 99%. In addition, the “Decrease in cell viability (%)” value with WI-38 cells (3 μM) was 4%; in the series on WI-38 cells (30 μM), 31%. Also, on TRPV1 receptor (setting [6]), the percent change in capsaicin-induced CGRP release (negative = inhibition, positive = potentiation) at 30 µM was 0%. On TRPV1 receptor, the Emax at 3 µM stood at 66%. Moreover, the Emax at 30 µM on TRPV1 receptor was 144%.

For `COc1cc(CCC(=O)CC(=O)c2ccc(F)cc2)ccc1O` [Compound 20, 1-(4-Fluorophenyl)-5-(4-hydroxy-3-methoxyphenyl)-pentane-1,3-dione], the inhibition at 3 µM is 0% in series [1]; 2% in series [2]; -8% in series [3]; 87% in series [4]; 58% at 5-lipoxygenase; 29% on TRPV1 receptor (setting [5]). Moreover, the inhibition at 30 µM is 22% in series [1]; 74% in series [2]; 11% in series [3]; 99% in series [4]; 98% at 5-lipoxygenase; 4% on TRPV1 receptor (setting [6]). Also, the figures for the “Decrease in cell viability (%)” value with WI-38 cells (3 μM) and in the series with WI-38 cells (30 μM) were 3% and 10%, respectively. For the same compound, the Emax at 3 µM at TRPV1 receptor stood at 46%. Moreover, the Emax at 30 µM on TRPV1 receptor was 96%.

Consider `COc1cc(CCC(=O)CC(=O)c2ccccc2C)ccc1O` [Compound 84, 5-(4-Hydroxy-3-methoxyphenyl)-1-o-tolylpentane-1,3-dione], for which the inhibition at 3 µM was determined as 19% in series [1]; 22% in series [2]; 6% in series [3]; 101% in series [4]; 77% at 5-lipoxygenase; 32% on TRPV1 receptor (setting [5]). Besides, the inhibition at 30 µM in series [1] stood at 66%; in series [2], 100%; in series [3], 65%; in series [4] it was 102%; on 5-lipoxygenase it was 98%; on TRPV1 receptor (setting [6]), 26%. For the same compound, the “Decrease in cell viability (%)” value in the series with WI-38 cells (3 μM) is recorded as 3%; in the series on WI-38 cells (30 μM), 12%. Further, the Emax at 3 µM on TRPV1 receptor came out at 54%. Besides, on TRPV1 receptor, the Emax at 30 µM came to 74%.

In the case of `COc1cc(CCC(=O)C(C)(C)C(=O)C(C)(C)C)ccc1O` [Compound 71, 1-(4-Hydroxy-3-methoxyphenyl)-4,4,6,6-tetramethylheptane-3,5-dione], the inhibition at 3 µM in series [1] was 0%; in series [2], 3%; in series [3] it was -1%; in series [4], 41%; on 5-lipoxygenase, 6%; on TRPV1 receptor (setting [5]), 26%. Further, the inhibition at 30 µM in series [1] stood at 35%; in series [2], 53%; in series [3] it was 20%; in series [4] it was 95%; on 5-lipoxygenase it was 48%; on TRPV1 receptor (setting [6]), 29%. In addition, the “Decrease in cell viability (%)” value was −1% in the series with WI-38 cells (3 μM) and 11% with WI-38 cells (30 μM). On TRPV1 receptor, the Emax at 3 µM came out at 48%. For the same compound, the Emax at 30 µM on TRPV1 receptor was 38%.

Take `COc1ccc(C(=O)C(C)C(=O)CCc2ccc(O)c(OC)c2)cc1` (stereo not shown) [Compound 17, 5-(4-Hydroxy-3-methoxyphenyl)-1-(4-methoxyphenyl)-2-methyl-pentane-1,3-dione]: the inhibition at 3 µM is 3% in series [1]; 6% in series [2]; -1% in series [3]; 58% in series [4]; 51% at 5-lipoxygenase; -98% at TRPV1 receptor (setting [5]). The inhibition at 30 µM in series [1] is 29%; in series [2] it was 42%; in series [3], 31%; in series [4], 98%; at 5-lipoxygenase, 95%; at TRPV1 receptor (setting [6]), -22%. The “Decrease in cell viability (%)” value in the series on WI-38 cells (3 μM) was −1%; with WI-38 cells (30 μM), 4%. Moreover, the Emax at 3 µM at TRPV1 receptor worked out at 55%. Also, the Emax at 30 µM at TRPV1 receptor was 183%.
